According to the supplement of paper PMC6045584:
± gives the standard deviation of the averaged measurements.

Experiments:
[1] = compound: COCC[n+]1c2c(n(Cc3cnccn3)c1C)C(=O)c1ccccc1C2=O [YM155]; assay: surviving fraction relative to DMSO-only wells; higher = less growth inhibition; conditions: exposure time: 5 days
In short: (§1)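 Tumour cell lines in log phase were plated in 384-well plates at 250–500 cells per well, then, after 24 hours, exposed continuously for five days to inhibitors at 0.5, 1, 5, 10, 50, 100, 500 and 1000 nM. Viability came from CellTiter-Glo luminescence, and surviving fraction is that signal normalised to the median of DMSO-only wells. Plates were read after 10 minutes at room temperature, and each line, screened three times, was kept only when replicate Pearson r was >0.7 and median Z' was >0.3.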

[2] = compound: CC[C@@]1(O)C(=O)OCc2c1cc1n(c2=O)Cc2cc3ccccc3nc2-1 [CAMPTOTHECIN]; assay: as above; conditions: exposure time: 5 days
In short: as §1

Test System | surviving fraction ([1]; 0.5 nM) | surviving fraction ([1]; 1 nM) | surviving fraction ([1]; 5 nM) | surviving fraction ([1]; 10 nM) | surviving fraction ([1]; 50 nM) | surviving fraction ([1]; 100 nM) | surviving fraction ([1]; 500 nM) | surviving fraction ([1]; 1000 nM) | surviving fraction ([2]; 0.5 nM) | surviving fraction ([2]; 1 nM) | surviving fraction ([2]; 5 nM) | surviving fraction ([2]; 10 nM) | surviving fraction ([2]; 50 nM) | surviving fraction ([2]; 100 nM) | surviving fraction ([2]; 500 nM) | surviving fraction ([2]; 1000 nM)
JURKAT HAEMATOPOIETIC AND LYMPHOID TISSUE | 1.02 ± 0.062 | 1.033 ± 0.0072 | 0.782 ± 0.015 | 0.445 ± 0.014 | 0.0363 ± 0.00058 | 0.029 | 0.027 | 0.0317 ± 0.00058 | 0.928 ± 0.043 | 0.902 ± 0.025 | 0.282 ± 0.011 | 0.0237 ± 0.0015 | 0.0293 ± 0.00058 | 0.0247 ± 0.00058 | 0.0203 ± 0.00058 | 0.0253 ± 0.0011
SYO1 SYNOVIAL | 0.847 ± 0.01 | 0.967 ± 0.035 | 0.761 ± 0.03 | 0.514 ± 0.012 | 0.0558 ± 0.0015 | 0.0337 ± 0.0012 | 0.0242 ± 0.00051 | 0.0279 ± 0.0021 | 0.359 ± 0.023 | 0.663 ± 0.033 | 0.325 ± 0.026 | 0.15 ± 0.024 | 0.0272 ± 0.0011 | 0.0304 ± 0.00084 | 0.0254 ± 0.0012 | 0.0321 ± 0.0019
COLO320DM LARGE INTESTINE | 0.981 ± 0.051 | 1.01 ± 0.063 | 0.994 ± 0.087 | 1.03 ± 0.17 | 0.708 ± 0.059 | 0.528 ± 0.057 | 0.231 ± 0.013 | 0.201 ± 0.012 | 0.381 ± 0.011 | 0.929 ± 0.12 | 0.458 ± 0.026 | 0.38 ± 0.023 | 0.137 ± 0.003 | 0.263 ± 0.0072 | 0.138 ± 0.0052 | 0.127 ± 0.0051
JIMT1 BREAST | 0.971 ± 0.033 | 0.992 ± 0.021 | 0.888 ± 0.033 | 0.543 ± 0.056 | 0.0545 ± 0.0027 | 0.0323 ± 0.0027 | 0.0275 ± 0.0013 | 0.0318 ± 0.0055 | 0.894 ± 0.018 | 0.893 ± 0.058 | 0.8377 ± 0.0059 | 0.655 ± 0.048 | 0.433 ± 0.024 | 0.394 ± 0.034 | 0.066 ± 0.0031 | 0.0517 ± 0.0014
SUM149 BREAST | 0.87 ± 0.17 | 1.07 ± 0.061 | 0.81 ± 0.064 | 0.445 ± 0.093 | 0.044 ± 0.001 | 0.0257 ± 0.0035 | 0.0203 ± 0.0032 | 0.023 ± 0.0036 | – | – | – | 0.126 ± 0.0081 | 0.102 ± 0.0081 | 0.0913 ± 0.0049 | 0.048 ± 0.0052 | 0.0367 ± 0.0055
93VU HEADNECK | 0.961 ± 0.099 | 0.982 ± 0.081 | 1.06 ± 0.061 | 1.045 ± 0.0081 | 0.839 ± 0.034 | 0.815 ± 0.06 | 0.193 ± 0.011 | 0.123 ± 0.027 | 0.844 ± 0.091 | 0.838 ± 0.038 | 0.805 ± 0.036 | 0.789 ± 0.063 | 0.464 ± 0.021 | 0.277 ± 0.043 | 0.103 ± 0.018 | 0.061 ± 0.007
CASKI CERVIX | 0.914 ± 0.052 | 0.93 ± 0.07 | 0.796 ± 0.056 | 0.538 ± 0.046 | 0.063 ± 0.009 | 0.0337 ± 0.0011 | 0.0223 ± 0.0015 | 0.0267 ± 0.0015 | 0.798 ± 0.11 | 0.821 ± 0.062 | 0.575 ± 0.054 | 0.38 ± 0.035 | 0.0697 ± 0.0057 | 0.0273 ± 0.00058 | 0.018 | 0.0217 ± 0.0011
A549 LUNG | 0.977 ± 0.029 | 1.01 ± 0.034 | 0.971 ± 0.021 | 0.98 ± 0.021 | 0.191 ± 0.005 | 0.12 ± 0.0047 | 0.024 | 0.028 | 0.909 ± 0.032 | 0.933 ± 0.021 | 0.964 ± 0.017 | 0.681 ± 0.018 | 0.2 ± 0.0097 | 0.121 ± 0.002 | 0.037 ± 0.003 | 0.026 ± 0.001
